Where two headings read alike, the source gives them in different places.
Key:
[1] = test system: RPE-Neo or RPE-MYC or RPE-MYC expressing an EGFP-Histone 2B fusion protein; assay: Phenotypic screening assay (arrest in mitosis or change in DNA content, IN-Cell Analyzer); format: cell-based; conditions: compounds at 20 nM to 20 μM, analysed 24, 48 or 72 hours after initiation of treatment
Experimental: (§1) Screening was conducted as described before (Li et al. 2019). Briefly, RPE-Neo or RPE-MYC or RPE-MYC expressing an EGFP-Histone 2B fusion protein were passaged as batches of 96-well plates, 18-24 hours before exposure to the chemical compounds of the present disclosure at concentrations from 20 nM to 20 μM. At 24, 48 or 72 hours after initiation of treatment, cells were analyzed for either an arrest in mitosis or a change in DNA content by GE 1N-Cell Analyzer 2000. MTT assays of cellular proliferation were performed as previously described (Li et al. 2019).
(§2) As set forth in table 2 below, an values of greater than or equal to 1 nM and less than or equal to 1.0 μM is marked “A”; a value greater than 1.00 μM and less than or equal to 10.0 μM is marked “B”; a value greater than 10.0 μM and less than or equal to 30.0 μM is marked “C”; and a value greater than 30.0 μM and less than 1000 μM is marked “D.”

RPE-Neo or RPE-MYC cells = assay: MTT assay of cellular proliferation; format: cell-based; conditions: compounds at 20 nM to 20 μM; read-out: Min. Effective conc. for Proliferative arrest (>50%)
Experimental: Human cancer cell lines were obtained from ATCC and cultured in DMEM (Gibco, Cleveland. TN, USA) supplemented with 5% fetal bovine serum (Gibco), penicillin (100 U/mL)-streptomycin (100 μg/mL) (Gibco, Cat. No. 15140-122), 2 mM L-glutamine (Gibco, 200 mM solution, Cat. No. 25030081), and 1 mM sodium pyruvate (Gibco, 100 mM solution, Cat. No. 11360070) at 37° C. in a humidified incubator that was maintained at 5% CO2.
as §1, §2

[2] = read-out: Min. Effective conc. for Along with Cell Death
[3] = read-out: Min. Effective conc. for Mitotic Arrest (>5%)
[4] = read-out: Min. Effective conc. for Polyploidy (≥5%)

Structure (SMILES)	minimal effective concentration [1, 2]	minimal effective concentration [1, 3]	minimal effective concentration [1, 4]	minimal effective concentration (RPE-Neo or RPE-MYC cells)
Cc1ccc(CN2C(=O)CC(c3ccon3)=C(Cl)c3ccccc32)cc1F [Compound 13-1, 5-chloro-1-(3-fluoro-4-methylbenzyl)-4-(isoxazol-3-yl)-1,3-dihydro-2H-benzo[b]azepin-2-one]	0.001 to 1 µM	0.001 to 1 µM	0.001 to 1 µM	0.001 to 1 µM
Cc1ccc(CN2C(=O)CC(c3cnco3)=C(Cl)c3ccccc32)cc1F [Compound 8-1, 5-chloro-1-(3-fluoro-4-methylbenzyl)-4-(oxazol-5-yl)-1,3-dihydro-2H-benzo[b]azepin-2-one]	0.001 to 1 µM	0.001 to 1 µM	0.001 to 1 µM	0.001 to 1 µM
COCC1=C(OC)c2ccccc2N(Cc2ccc(C)c(F)c2)C(=O)C1 [Compound 28-1, 1-(3-fluoro-4-methylbenzyl)-5-methoxy-4-(methoxymethyl)-1,3-dihydro-2H-benzo[b]azepin-2-one]	1 to 10 µM	1 to 10 µM	1 to 10 µM	1 to 10 µM
COc1ccc(CN2C(=O)CC(c3nnc(C4CC4)o3)=C(Br)c3ccccc32)cc1 [Compound 20-21, 5-bromo-4-(5-cyclopropyl-1,3,4-oxadiazol-2-yl)-1-(4-methoxybenzyl)-1,3-dihydro-2H-benzo[b]azepin-2-one]	0.001 to 1 µM	0.001 to 1 µM	0.001 to 1 µM	0.001 to 1 µM
Cc1ccc(CN2C(=O)CC(c3nnc(C4CC4)o3)=C(C3CC3)c3ccccc32)cc1F [Compound 20-29]	1 to 10 µM	1 to 10 µM	1 to 10 µM	1 to 10 µM
Cc1ccc(CN2C(=O)CC(c3nnc(C4CC4)o3)=C(Cl)c3ccccc32)cc1F [Compound 20-5, 5-chloro-4-(5-cyclopropyl-1,3,4-oxadiazol-2-yl)-1-(3-fluoro-4-methylbenzyl)-1,3-dihydro-2H-benzo[b]azepin-2-one]	0.001 to 1 µM	0.001 to 1 µM	0.001 to 1 µM	0.001 to 1 µM
Cc1ccc(CN2C(=O)CC(CN3CCCC3)=C(Br)c3ccccc32)cc1F [Compound 45, 5-bromo-1-(3-fluoro-4-methylbenzyl)-4-(pyrrolidin-1-ylmethyl)-1,3-dihydro-2H-benzo[b]azepin-2-one]	1 to 10 µM	1 to 10 µM	1 to 10 µM	1 to 10 µM
Cc1ccc2c(c1)N(Cc1ccc(C)c(F)c1)C(=O)CC(c1cnco1)=C2Br [Compound 8-13, 5-bromo-1-(3-fluoro-4-methylbenzyl)-8-methyl-4-(oxazol-5-yl)-1,3-dihydro-2H-benzo[b]azepin-2-one]	0.001 to 1 µM	0.001 to 1 µM	0.001 to 1 µM	0.001 to 1 µM
Cc1ccc(CN2C(=O)CC(c3cnco3)=C(Br)c3ccc(O)cc32)cc1F [Compound 8-10, 5-bromo-1-(3-fluoro-4-methylbenzyl)-8-hydroxy-4-(oxazol-5-yl)-1,3-dihydro-2H-benzo[b]azepin-2-one]	0.001 to 1 µM	0.001 to 1 µM	0.001 to 1 µM	0.001 to 1 µM
Cc1ccc2c(c1)N(Cc1ccc(C)c(F)c1)C(=O)CC(c1nnc(C)o1)=C2Br [Compound 20-13, 5-bromo-1-(3-fluoro-4-methylbenzyl)-8-methyl-4-(5-methyl-1,3,4-oxadiazol-2-yl)-1,3-dihydro-2H-benzo[b]azepin-2-one]	0.001 to 1 µM	0.001 to 1 µM	0.001 to 1 µM	0.001 to 1 µM
Cc1ccc(CN2C(=O)CC(C=O)=C(Cl)c3ccccc32)cc1F [Compound 7-1, 5-chloro-1-(3-fluoro-4-methylbenzyl)-2-oxo-2,3-dihydro-1H-benzo[b]azepine-4-carbaldehyde]	0.001 to 1 µM	0.001 to 1 µM	0.001 to 1 µM	0.001 to 1 µM
Cc1ccc(CN2C(=O)CC(COC3CCOC3)=C(Br)c3ccccc32)cc1F (stereo not shown) [Compound 44-1, 5-bromo-1-(3-fluoro-4-methylbenzyl)-4-(((tetrahydrofuran-3-yl)oxy)methyl)-1,3-dihydro-2H-benzo[b]azepin-2-one]	0.001 to 1 µM	0.001 to 1 µM	0.001 to 1 µM	0.001 to 1 µM
Cc1ccc(C(C)N2C(=O)CC(c3nnc(C4CC4)o3)=C(Br)c3ccccc32)cc1F (stereo not shown) [Compound 40]	1 to 10 µM	1 to 10 µM	1 to 10 µM	1 to 10 µM
Cc1ccc(CN2C(=O)CC(c3nnc(C4CC4)o3)=C(Br)c3c(F)cccc32)cc1F [Compound 20-16, 5-bromo-4-(5-cyclopropyl-1,3,4-oxadiazol-2-yl)-6-fluoro-1-(3-fluoro-4-methylbenzyl)-1,3-dihydro-2H-benzo[b]azepin-2-one]	0.001 to 1 µM	0.001 to 1 µM	0.001 to 1 µM	0.001 to 1 µM
Cc1ccc(CN2C(=O)CC(c3nnc(C4CC4)o3)=C(Br)c3ccc(C#N)cc32)cc1F [Compound 20-11, 5-bromo-4-(5-cyclopropyl-1,3,4-oxadiazol-2-yl)-1-(3-fluoro-4-methylbenzyl)-2-oxo-2,3-dihydro-1H-benzo[b]azepine-8-carbonitrile]	0.001 to 1 µM	0.001 to 1 µM	0.001 to 1 µM	0.001 to 1 µM
Cc1nnc(C2=C(Cl)c3ccccc3N(Cc3ccc(C)c(F)c3)C(=O)C2)o1 [Compound 20-1, 5-chloro-1-(3-fluoro-4-methylbenzyl)-4-(5-methyl-1,3,4-oxadiazol-2-yl)-1,3-dihydro-2H-benzo[b]azepin-2-one]	0.001 to 1 µM	0.001 to 1 µM	0.001 to 1 µM	0.001 to 1 µM
Cc1ccc(CN2C(=O)CC(c3nnc(C4CC4)o3)=C(Br)c3ccc(C(N)=O)cc32)cc1F [Compound 20-22, 5-bromo-4-(5-cyclopropyl-1,3,4-oxadiazol-2-yl)-1-(3-fluoro-4-methylbenzyl)-2-oxo-2,3-dihydro-1H-benzo[b]azepine-8-carboxamide]	0.001 to 1 µM	0.001 to 1 µM	0.001 to 1 µM	0.001 to 1 µM
Cc1ccc(CN2C(=O)CC(COCC3CCCO3)=C(Br)c3ccccc32)cc1F (stereo not shown) [Compound 44-4, 5-bromo-1-(3-fluoro-4-methylbenzyl)-4-(((tetrahydrofuran-2-yl)methoxy)methyl)-1,3-dihydro-2H-benzo[b]azepin-2-one]	1 to 10 µM	1 to 10 µM	1 to 10 µM	1 to 10 µM
Cc1ccc(CN2C(=O)CC(c3nc[nH]n3)=C(Br)c3ccccc32)cc1F [Compound 22-1, 5-bromo-1-(3-fluoro-4-methylbenzyl)-4-(1H-1,2,4-triazol-3-yl)-1,3-dihydro-2H-benzo[b]azepin-2-one]	1 to 10 µM	1 to 10 µM	1 to 10 µM	1 to 10 µM
Cc1ccc(CN2C(=O)CC(c3ccon3)=C(Br)c3ccccc32)cc1F [Compound 13-2]	0.001 to 1 µM	0.001 to 1 µM	0.001 to 1 µM	0.001 to 1 µM
CCOCC1=C(Cl)c2ccccc2N(Cc2ccc(C)c(F)c2)C(=O)C1 [Compound 24-2, 5-chloro-4-(ethoxymethyl)-1-(3-fluoro-4-methylbenzyl)-1,3-dihydro-2H-benzo[b]azepin-2-one]	0.001 to 1 µM	0.001 to 1 µM	0.001 to 1 µM	0.001 to 1 µM
COC1=C(c2cnco2)CC(=O)N(Cc2ccc(C)c(F)c2)c2ccccc21 [Compound 26-1, 1-(3-fluoro-4-methylbenzyl)-5-methoxy-4-(oxazol-5-yl)-1,3-dihydro-2H-benzo[b]azepin-2-one]	1 to 10 µM	1 to 10 µM	1 to 10 µM	1 to 10 µM

From patent US20250011289A1, “1H-BENZO[B]AZEPIN-2(3H)-ONE COMPOUNDS, COMPOSITIONS AND METHODS OF TREATING CANCER” (Chengdu Anticancer Bioscience, Ltd., priority 2021, published 2025)
